Measurements: ChEMBL document CHEMBL5338801, “Carbohydrate Strengthens the Immunotherapeutic Effect of Small-Molecule PD-L1 Inhibitors” (J Med Chem, 2023)
Active and inactive are the calls of the source. The rule behind the calls is not given here.

Assays:
[1] = biological target: T1, Programmed cell death protein 1/Programmed cell death 1 ligand 1 (Homo sapiens, UniProt Q9NZQ7); experiment: Inhibition of PD-1/His-tagged PD-L1 (unknown origin) protein-protein interaction incubated for 90 mins by AlphaLISA; format: protein-complex assay
MC-38 = experiment: Cytotoxicity against mouse MC38 cells assessed as cell death at 10 uM for 48 hrs by MTT assay; format: toxicity, cell-based; settings: mc-38, 48 h
Jurkat [2] = experiment: Cytotoxicity against human Jurkat cells assessed as cell growth inhibition incubated for 48 hrs by MTT assay; format: functional, cell-based
RKO [3] = experiment: Cytotoxicity against human RKO cells over expressing human PD-L1 at above 10 uM; format: toxicity, cell-based
[4] = Partition coefficient, logD of compound in 1-octanol and phosphate buffer at pH 7.4 incubated for 1 hr under shaking condition by HPLC analysis; format: physicochemical; settings: 1-octanol/phosphate buffer, pH 7.4
[5] = Observed MRT infinity in CD-1 mouse at 5 mg/kg, ip measured upto 24 hrs by UPLC analysis; format: ADME, organism-based; settings: in vivo
[6] = biological target: T1, Programmed cell death protein 1/Programmed cell death 1 ligand 1; experiment: Inhibition of human PD-1/PD-L1 interaction overexpressed in human HEK293T cells by flow cytometry analysis; format: cell-based
[7] = Toxicity in C57BL/6 mouse implanted with mouse B16-F10 cells assessed as weight loss at 100 mg/kg, po qd administered for 6 days measured after 7 days relative to control; format: organism-based; settings: in vivo, 168 h, time 7 day
CT26 [8] = experiment: Antitumor activity against mouse CT26 cells implanted Balb/c mouse assessed as increase CD4+ cell count at 25 mg/kg, ip qd administered for 10 days measured every 2 days for 12 days (reference value: 13.74 +/- 0.51%); format: functional; settings: time 12 day
[9] = Tmax in CD-1 mouse at 5 mg/kg, ip measured upto 24 hrs by UPLC analysis; format: ADME, organism-based; settings: in vivo
B16-F10 [10] = experiment: Antitumor activity against mouse B16-F10 cells implanted in C57BL/6 mouse assessed as tumor growth inhibition at 100 mg/kg, po qd for 6 days and measured once a day for 7 days relative to control; format: functional; settings: B16-F10, 168 h, time 7 day, read-out: TGI
B16-F10 [11] = experiment: Antitumor activity against mouse B16-F10 cells implanted in C57BL/6 mouse assessed as tumor growth inhibition at 5 mg/kg, it qd for 6 days and measured once a day for 7 days relative to control; format: functional; settings: B16-F10, 168 h, time 7 day, read-out: TGI
[12] = Cmax in CD-1 mouse at 5 mg/kg, ip measured upto 24 hrs by UPLC analysis; format: ADME, organism-based; design: dose 5 mg/kg, time < 24 hrs, route ip; settings: in vivo
[13] = Cmax in CD-1 mouse at 5 mg/kg, iv measured upto 24 hrs by UPLC analysis; format: ADME, organism-based; design: dose 5 mg/kg, time < 24 hrs, route iv; settings: in vivo
[14] = Toxicity in C57BL/6 mouse implanted with mouse B16-F10 cells assessed as weight loss at 5 mg/kg, it qd administered for 6 days measured after 7 days relative to control; format: organism-based; settings: in vivo, other, 168 h, time 7 day
CT26 [15] = experiment: Antitumor activity against mouse CT26 cells implanted in Balb/c mouse assessed as tumor growth inhibition at 25 mg/kg, ip qd administered for 10 days measured every 2 days for 12 days relative to control; format: functional; settings: CT26, 288 h, time 12 day, read-out: TGI
B16-F10 [16] = experiment: Antitumor activity against mouse B16-F10 cells implanted in C57BL/6 mouse assessed as tumor growth inhibition at 25 mg/kg, ip qd for 6 days and measured once a day for 7 days relative to control; format: functional; settings: B16-F10, 168 h, time 7 day, read-out: TGI
Jurkat [17] = experiment: Cytotoxicity against human Jurkat T cells assessed as cell growth inhibition upto 30 uM incubated for 48 hrs by MTT assay; format: toxicity, cell-based
CT26 [18] = experiment: Antitumor activity against mouse CT26 cells xenografted Balb/c mouse assessed as increase CD3+ CD8+ T cell count at 25 mg/kg, ip qd administered for 10 days measured every 2 days for 12 days (reference value: 5.77 +/- 0.32%); format: functional; settings: time 12 day
[19] = Half life in CD-1 mouse at 5 mg/kg, iv measured upto 24 hrs by UPLC analysis; format: ADME, organism-based; settings: in vivo
[20] = Upregulation of IFN-gamma secretion in human CD4+ve Th cells cocultured with DC cells incubated for 120 hrs by ELISA; format: functional
[21] = Toxicity in C57BL/6 mouse implanted with mouse B16-F10 cells assessed as weight loss at 25 mg/kg, ip qd administered for 6 days measured after 7 days relative to control; format: organism-based; settings: in vivo, 168 h, time 7 day
[22] = Observed AUC infinity in CD-1 mouse at 5 mg/kg, iv measured upto 24 hrs by UPLC analysis; format: ADME, organism-based; design: dose 5 mg/kg, time < 24 hrs, route iv; settings: in vivo
[23] = AUClast in CD-1 mouse at 5 mg/kg, iv measured upto 24 hrs by UPLC analysis; format: ADME, organism-based; design: dose 5 mg/kg, time < 24 hrs, route iv; settings: in vivo
[24] = Observed MRT infinity in CD-1 mouse at 5 mg/kg, iv measured upto 24 hrs by UPLC analysis; format: ADME, organism-based; settings: in vivo
CT26 [25] = experiment: Antitumor activity against mouse CT26 cells xenografted Balb/c mouse assessed as granzyme B+ CD8+ T cell count at 25 mg/kg, ip qd administered for 10 days measured every 2 days for 12 days (reference value: 4.31 +/- 2.35%); format: functional; settings: time 12 day
[26] = Toxicity in BALB/c mouse implanted with mouse CT26 cells assessed as weight loss at 25 mg/kg, ip qd administered for 10 days measured every 2 days for 12 days relative to control; format: organism-based; settings: in vivo, 288 h, time 12 day
[27] = AUClast in CD-1 mouse at 5 mg/kg, ip measured upto 24 hrs by UPLC analysis; format: ADME, organism-based; design: dose 5 mg/kg, time < 24 hrs, route ip; settings: in vivo
[28] = Half life in CD-1 mouse at 5 mg/kg, ip measured upto 24 hrs by UPLC analysis; format: ADME, organism-based; settings: in vivo
[29] = Observed AUC infinity in CD-1 mouse at 5 mg/kg, ip measured upto 24 hrs by UPLC analysis; format: ADME, organism-based; design: dose 5 mg/kg, time < 24 hrs, route ip; settings: in vivo
[30] = Tmax in CD-1 mouse at 5 mg/kg, iv measured upto 24 hrs by UPLC analysis; format: ADME, organism-based; settings: in vivo
[31] = Tmax in CD-1 mouse at 10 mg/kg, ig measured upto 24 hrs by UPLC analysis; format: ADME, organism-based; settings: in vivo, po
[32] = AUClast in CD-1 mouse at 10 mg/kg, ig measured upto 24 hrs by UPLC analysis; format: ADME, organism-based; design: dose 10 mg/kg, time < 24 hrs, route ig; settings: in vivo, po
[33] = biological target: Programmed cell death 1 ligand 1 (Homo sapiens) (UniProt Q9NZQ7); experiment: Inhibition of human PD-L1 overexpressed in RKO cells assessed as reduction in membrane activity cocultured for 48 hrs by flow cytometry analysis; format: cell-based
CT26 [34] = experiment: Downregulation of mitogen-activated protein kinase 15 in mouse CT26 cells implanted in Balb/c mouse tumor by LC/MS analysis; format: functional, cell-based
[35] = Cmax in CD-1 mouse at 10 mg/kg, ig measured upto 24 hrs by UPLC analysis; format: ADME, organism-based; design: dose 10 mg/kg, time < 24 hrs, route ig; settings: in vivo, po
CT26 [36] = experiment: Downregulation of immediate early response 3-interacting protein 1 in Balb/c mouse tumor implanted with mouse CT26 cells tumor by LC/MS analysis; format: functional, cell-based
[37] = Volume of distribution at steady state in CD-1 mouse at 5 mg/kg, iv measured upto 24 hrs by UPLC analysis; format: ADME, organism-based; settings: in vivo, read-out: Vdss
RKO [38] = experiment: Cytotoxicity against human RKO cells over expressing human PD-L1 at 50 uM; format: toxicity, cell-based
[39] = Observed MRT infinity in CD-1 mouse at 10 mg/kg, ig measured upto 24 hrs by UPLC analysis; format: ADME, organism-based; settings: in vivo, po
[40] = biological target: Programmed cell death 1 ligand 1 (Homo sapiens) (UniProt Q9NZQ7); experiment: Induction of human PD-L1 degradation expressed in MC38 cells at 1 to 10 uM cocultured for 72 hrs by Western blotting analysis; format: cell-based; settings: dose 1-10 µM
CT26 [41] = experiment: Downregulation of BET1 homologue in Balb/c mouse tumor implanted with mouse CT26 cells by LC/MS analysis; format: functional, cell-based
[42] = Observed clearance in CD-1 mouse at 5 mg/kg, iv measured upto 24 hrs by UPLC analysis; format: ADME, organism-based; settings: in vivo
[43] = biological target: T1, Programmed cell death protein 1/Programmed cell death 1 ligand 1; experiment: Inhibition of PD-1/PD-L1 (unknown origin) interaction incubated for 15 mins by HTRF assay; format: protein-complex assay
CT26 [44] = experiment: Downregulation of mouse PD-L1 expressed in CT26 cells incubated for 48 hrs; format: functional, cell-based
RKO [45] = experiment: Downregulation of human PD-L1 expressed in RKO cells incubated for 48 hrs; format: functional, cell-based
CT26 [46] = experiment: Downregulation of STING ER exit protein in Balb/c mouse tumor implanted with mouse CT26 cells by LC/MS analysis; format: functional, cell-based
[47] = Half life in CD-1 mouse at 10 mg/kg, ig measured upto 24 hrs by UPLC analysis; format: ADME, organism-based; settings: in vivo, po
[48] = biological target: Programmed cell death 1 ligand 1 (Homo sapiens) (UniProt Q9NZQ7); experiment: Induction of human PD-L1 degradation expressed in MC38 cells at 10 uM cocultured for 72 hrs by Western blotting analysis; format: cell-based
[49] = biological target: Programmed cell death 1 ligand 1 (Homo sapiens) (UniProt Q9NZQ7); experiment: Induction of human PD-L1 degradation expressed in MC38 cells at 0.1 to 10 uM cocultured for 72 hrs by Western blotting analysis; format: cell-based; settings: dose 0.1-10 µM

Chain of Programmed cell death 1 ligand 1 (Homo sapiens) (Q9NZQ7 whole entry): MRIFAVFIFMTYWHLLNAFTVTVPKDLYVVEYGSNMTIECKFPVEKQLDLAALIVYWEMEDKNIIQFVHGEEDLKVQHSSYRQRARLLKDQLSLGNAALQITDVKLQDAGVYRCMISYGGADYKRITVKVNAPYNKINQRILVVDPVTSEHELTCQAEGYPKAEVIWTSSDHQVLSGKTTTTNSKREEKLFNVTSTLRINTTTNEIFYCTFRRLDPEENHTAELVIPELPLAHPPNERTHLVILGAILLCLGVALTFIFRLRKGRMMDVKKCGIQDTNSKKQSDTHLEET
T1 sequence (Q15116 whole entry): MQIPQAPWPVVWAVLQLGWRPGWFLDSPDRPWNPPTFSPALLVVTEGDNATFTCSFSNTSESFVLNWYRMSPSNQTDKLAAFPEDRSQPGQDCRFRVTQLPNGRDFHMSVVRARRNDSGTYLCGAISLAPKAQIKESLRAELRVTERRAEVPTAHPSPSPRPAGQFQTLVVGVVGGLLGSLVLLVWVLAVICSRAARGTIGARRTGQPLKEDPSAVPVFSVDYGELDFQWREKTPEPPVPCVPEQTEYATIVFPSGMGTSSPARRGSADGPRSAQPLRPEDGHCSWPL
T1 sequence (Q9NZQ7 whole entry): as the sequence (Q9NZQ7 whole entry) above

Cc1c(COc2cc(OCc3cncc(C#N)c3)c(CN(CCCN(C)C)CCS(=O)(=O)O)cc2Cl)cccc1-c1ccc2c(c1)OCCO2
IC50 [1]: 23.5 nM

COc1cc(OCc2cccc(-c3ccccc3)c2C)cc(OC)c1CN[C@H](C)CO
Activity (MC-38): Toxic
IC50 (Jurkat [2]): 2800 nM
Activity (RKO [3]): Toxic
logD at 1 h [4]: 3.25

COc1cc(OCc2cccc(-c3ccccc3)c2C)cc(OC)c1CNCCO[C@H]1O[C@H](CO)[C@@H](O)[C@H](O)[C@@H]1O
MRT inf [5]: 1.9 h
IC50 [6]: 60.8 nM
Activity [7]: Non-Toxic
Activity (CT26 [8]): 18.4%
Tmax [9]: 0.58 h
inhibition in vivo at 100 mg/kg (B16-F10 [10]): 41.1%
inhibition in vivo at 5 mg/kg (B16-F10 [11]): 41.1%
Cmax [12]: 1630 ng/mL
Cmax [13]: 928 ng/mL
Activity [14]: Non-Toxic
inhibition in vivo at 25 mg/kg (CT26 [15]): 67.2%
inhibition in vivo at 25 mg/kg (B16-F10 [16]): 41.1%
Activity (Jurkat [17]): Non-Toxic
Activity (CT26 [18]): 8.67%
half-life [19]: 3.78 h
fold change (FC) [20]: 6.72
Activity [21]: Non-Toxic
AUC ([22]; mouse, 24 h): 1110 ng·h/mL
AUC(0-t) at 24 h [23]: 1090 ng·h/mL
MRT inf [24]: 1.5 h
Activity (CT26 [25]): 7.19%
Activity [26]: Non-Toxic
AUC(0-t) at 24 h [27]: 2920 ng·h/mL
half-life [28]: 5.83 h
AUC(0-inf) [29]: 2990 ng·h/mL
logD at 1 h [4]: 1.78
Tmax [30]: 0.58 h

COc1nc(OCc2cccc(-c3ccccc3)c2C)ccc1CNCCO[C@@H]1O[C@H](CO)[C@@H](O)[C@H](O)[C@H]1NC(C)=O
Tmax [31]: 0.5 h
AUC(0-t) at 24 h [32]: 337 ng·h/mL
IC50 [6]: 49.4 nM
inhibition [33]: Active
Activity (CT26 [34]): Active
Cmax [35]: 31.7 ng/mL
Activity [7]: Non-Toxic
Activity (CT26 [8]): 20.53%
inhibition in vivo at 100 mg/kg (B16-F10 [10]): 41.1%
inhibition in vivo at 5 mg/kg (B16-F10 [11]): 41.1%
Activity (CT26 [36]): Active
Activity [14]: Non-Toxic
inhibition in vivo at 25 mg/kg (CT26 [15]): 77.3%
inhibition in vivo at 25 mg/kg (B16-F10 [16]): 41.1%
Activity (Jurkat [17]): Non-Toxic
Vd [37]: 6.88 L/kg
Activity (CT26 [18]): 11.47%
half-life [19]: 6.36 h
fold change (FC) [20]: 2.57
Activity [21]: Non-Toxic
AUC(0-inf) ([22]; CD-1, mouse): 2230 ng·h/mL
Activity (RKO [38]): Non-Toxic
MRT inf [39]: 10.2 h
AUC(0-t) at 24 h [23]: 2160 ng·h/mL
MRT inf [24]: 3.58 h
Activity [40]: Active
Activity (CT26 [41]): Active
Activity (CT26 [25]): 5.06%
Activity [26]: Non-Toxic
clearance [42]: 38.6 mL/min/kg
IC50 [43]: 29.2 nM
Activity (CT26 [44]): Active
Activity (RKO [45]): Active
Activity (CT26 [46]): Active
half-life [47]: 7.02 h
logD at 1 h [4]: 2.09

COc1nc(OCc2cccc(-c3ccccc3)c2C)ccc1CNCCO[C@H]1O[C@H](CO)[C@@H](O)[C@H](O)[C@@H]1O
inhibition [33]: Active
Activity [48]: Active
Activity (RKO [38]): Non-Toxic

COc1nc(OCc2cccc(-c3ccccc3)c2C)ccc1CNCCNC(C)=O
Activity (MC-38): Toxic
IC50 (Jurkat [2]): 2600 nM
Activity [26]: Toxic
Activity (RKO [3]): Toxic
logD at 1 h [4]: 3.33

COc1cc(OCc2cccc(-c3ccccc3)c2C)cc(OC)c1CNCCO[C@@H]1O[C@H](CO)[C@@H](O)[C@H](O)[C@H]1O
Activity [49]: inactive
